Experimental data reported in the NIST ThermoML archive (doi:10.1021/je400231q).
± gives the expanded uncertainty stated by the source.

Settings: 101.33 kPa, Liquid, Vibrating tube method

| SMILES | mass density (293.15 K) [kg/m3] | mass density (298.15 K) [kg/m3] | mass density (303.15 K) [kg/m3] | mass density (308.15 K) [kg/m3] | mass density (313.15 K) [kg/m3] | mass density (318.15 K) [kg/m3] | mass density (323.15 K) [kg/m3] | mass density (328.15 K) [kg/m3] |
| --- | --- | --- | --- | --- | --- | --- | --- | --- |
| CC(CC(C)(C)C)CP(=O)([O-])CC(C)CC(C)(C)C.CCCCCCCCCCCCCC[P+](CCCCCC)(CCCCCC)CCCCCC | 894 ± 11 | 890.8 ± 11 | 887.7 ± 11 | 884.6 ± 11 | 881.5 ± 11 | 878.4 ± 11 | 875.3 ± 11 | 872.3 ± 11 |
| CC(=O)[O-].CCn1cc[n+](C)c1 [1-ethyl-3-methylimidazolium acetate] | 1101.5 ± 12 | 1098.3 ± 12 | 1095.1 ± 12 | 1092 ± 12 | 1088.9 ± 12 | 1085.8 ± 12 | 1082.8 ± 12 | 1079.7 ± 12 |

Second part, the compound after the results:

| mass density (293.15 K) [kg/m3] | mass density (298.15 K) [kg/m3] | mass density (303.15 K) [kg/m3] | mass density (308.15 K) [kg/m3] | mass density (313.15 K) [kg/m3] | mass density (318.15 K) [kg/m3] | mass density (323.15 K) [kg/m3] | mass density (328.15 K) [kg/m3] | SMILES |
| --- | --- | --- | --- | --- | --- | --- | --- | --- |
| 1236.7 ± 13 | 1233.2 ± 12 | 1229.8 ± 12 | 1226.3 ± 12 | 1222.9 ± 12 | 1219.5 ± 12 | 1216.2 ± 12 | 1212.8 ± 12 | CCOS(=O)(=O)[O-].CCn1cc[n+](C)c1 [1-ethyl-3-methylimidazolium ethyl sulfate] |
| 1244.4 ± 13 | 1240.9 ± 13 | 1237.4 ± 13 | 1233.9 ± 12 | 1230.5 ± 12 | 1227 ± 12 | 1223.7 ± 12 | 1220.3 ± 12 | CCn1cc[n+](C)c1.CS(=O)(=O)[O-] [1-ethyl-3-methylimidazolium methanesulfonate] |
| 1119.2 ± 12 | 1116.1 ± 12 | 1113 ± 12 | 1109.9 ± 12 | 1106.9 ± 12 | 1103.8 ± 12 | 1100.8 ± 12 | 1097.8 ± 12 | CCn1cc[n+](C)c1.N#C[S-] [1-ethyl-3-methylimidazolium thiocyanate] |
| 1347.2 ± 14 | 1344.3 ± 14 | 1341.4 ± 13 | 1338.5 ± 13 | 1335.7 ± 13 | 1332.9 ± 13 | 1330.2 ± 13 | 1327.4 ± 13 | COS(=O)(=O)[O-].C[N+](CCO)(CCO)CCO [tris(2-hydroxyethyl) methylammonium methylsulfate] |
